Article PMC10353187, “Discovery of a new potent oxindole multi-kinase inhibitor among a series of designed 3-alkenyl-oxindoles with ancillary carbonic anhydrase inhibitory activity as antiproliferative agents” (BMC Chemistry, 2023)

Experiments:
[1] = molecular target: hCA II (Homo sapiens, UniProt P00918); assay: Stopped flow CO2 hydrase assay
[2] = molecular target: hCA I (Homo sapiens, UniProt P00915); assay: Stopped flow CO2 hydrase assay
[3] = molecular target: hCA XII (Homo sapiens, UniProt O43570); assay: Stopped flow CO2 hydrase assay; details: for Selectivity ratio I/XII: Ki hCA I / Ki hCA XII; for Selectivity ratio II/XII: Ki hCA II / Ki hCA XII
hCA XII, sequence (O43570 25-354): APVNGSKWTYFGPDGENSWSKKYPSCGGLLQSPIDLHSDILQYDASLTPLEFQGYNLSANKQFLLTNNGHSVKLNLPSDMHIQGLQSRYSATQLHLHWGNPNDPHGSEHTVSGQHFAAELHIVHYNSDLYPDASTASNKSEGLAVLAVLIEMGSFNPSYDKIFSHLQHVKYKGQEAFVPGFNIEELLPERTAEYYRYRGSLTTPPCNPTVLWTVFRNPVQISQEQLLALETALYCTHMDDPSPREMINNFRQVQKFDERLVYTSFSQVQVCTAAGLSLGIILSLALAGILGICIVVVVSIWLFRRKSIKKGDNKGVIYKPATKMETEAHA

[4] = molecular target: hCA IX (Homo sapiens, UniProt Q16790); assay: Stopped flow CO2 hydrase assay; details: for Selectivity ratio I/IX: Ki hCA I / Ki hCA IX; for Selectivity ratio II/IX: Ki hCA II / Ki hCA IX
[5] = Fig. 2; read-out: cytotoxicity average IC50; cited from earlier work
[6] = system: UO-31; assay: NCI-60 single-dose antiproliferative assay (SRB); format: cell-based, human; details: Homo sapiens, UO-31, 10 μM single dose; UO-31, Renal cancer; read-out: Cell Growth inhibition Percent
Method: (§1) From the newly synthesized compounds, eleven compounds (4c, 4d, 5, 9a, 9b, 11a, 11b, 13b, 13c, 15b, and 15c) were selected by the National Cancer Institute (NCI) Developmental Therapeutics Program (DTP), Bethesda, Maryland, USA for the in vitro anti-proliferative activity evaluation. The selected compounds were examined at 10 μM dose against the NCI 60-cell line panel. This panel consists of nine cell line groups of leukemia, non-small cell lung carcinoma (NSCLC), melanoma, colon, CNS, ovarian, renal, prostate, and breast cancers. The results are reported as mean-graph of the percent growth relative to control and presented as percentage growth inhibition (GI%), furthermore, mean GI% of each compound over all panel cell lines was calculated (Table 1; Additional file 1; S3: In vitro biological activity).
(§2) From the newly synthesized compounds, eleven compounds were selected by the National Cancer Institute (NCI) Developmental Therapeutics Program (DTP), Bethesda, Maryland, USA for the in vitro anti-proliferative activity evaluation (For further details see supplementary materials).
(§3) NCI In-vitro Cancer Screening is a two-phase procedure that starts with the assessment of all compounds against the sixty NCI cell line panel depicting leukemia, NSCLC, CNS cancer, melanoma, prostate cancer, breast cancer, renal cancer, colon cancer and ovarian cancer cell lines at a single point of 10μM. The output from the single-dose screen is reportable as a mean graph.
(§4) The human tumor cell lines of the cancer screening panel were grown in RPMI 1640 medium containing 5% fetal bovine serum and 2 mM L-glutamine. For a typical screening experiment, cells were inoculated into 96 well microtiter plates in […] at plating densities ranging from 5000 to 40,000 cells/well depending on the doubling time of individual cell lines. After cell inoculation, the microtiter plates were incubated at 37 °C, 5% CO2, 95% air and 100% relative humidity for 24 h prior to addition of experimental drugs. After 24 h, two plates of each cell line were fixed in situ with trichloroacetic acid (TCA), to represent a measurement of the cell population for each cell line at the time of drug addition (Tz). Experimental drugs were solubilized in dimethyl sulfoxide at 400-fold the desired final maximum test concentration and stored frozen prior to use. At the time of drug addition, an aliquot of frozen concentrate was thawed and diluted to twice the desired final maximum test concentration with complete medium containing 50 µg/ml gentamicin. Aliquot of 100 µl of the drug dilution was added to the appropriate microtiter wells already containing 100 µl of medium, resulting in the required final drug concentration (10 µM). Triplicate wells were prepared for each individual dose. Following drug addition, the plates were incubated for an additional 48 h at 37 °C, 5% CO2, 95% air, and 100% relative humidity. For adherent cells, the assay was terminated by the addition of cold TCA. Cells were fixed in situ by the gentle addition of 50 µl of cold 50% (w/v) TCA (final concentration, 10% TCA) and incubated for 60 min at 4 °C. The supernatant was discarded, and the plates were washed five times with tap water and air dried. Sulforhodamine B (SRB) solution (100 µl) at 0.4% (w/v) in 1% acetic acid was added to each well, and plates were incubated for 10 min at room temperature. After staining, unbound dye was removed by washing five times with 1% acetic acid and the plates were air dried. Bound stain was subsequently solubilized with 10 mM trizma base, and the absorbance was read on an automated plate reader at a wavelength of 515 nm. For suspension cells, the methodology was the same except that the assay was terminated by fixing settled cells at the bottom of the wells by gently adding 50 µl of 80% TCA (final concentration, 16% TCA). […]

[7] = system: HCT-116; assay: NCI-60 single-dose antiproliferative assay (SRB); format: cell-based; details: Homo sapiens; 10 μM single dose; HCT-116, Colon cancer; read-out: Cell Growth inhibition Percent
Method: as §1, §2, §3, §4

[8] = system: SK-MEL-5; assay: NCI-60 single-dose antiproliferative assay (SRB); format: cell-based; details: Homo sapiens; 10 μM single dose; SK-MEL-5, Melanoma; read-out: Cell Growth inhibition Percent
Method: as §1, §2, §3, §4

[9] = system: EKVX; assay: NCI-60 single-dose antiproliferative assay (SRB); format: cell-based; details: Homo sapiens, 10 μM single dose, Non-small cell lung cancer, read-out: Cell Growth inhibition Percent
Method: as §1, §2, §3, §4

[10] = system: HOP-62; assay: NCI-60 single-dose antiproliferative assay (SRB); format: cell-based; details: Homo sapiens; 10 μM single dose; HOP-62, Non-small cell lung cancer; read-out: Cell Growth inhibition Percent
Method: as §1, §2, §3, §4

[11] = system: K-562; assay: NCI-60 single-dose antiproliferative assay (SRB); format: cell-based; details: Homo sapiens, K562; 10 μM single dose; K-562, Leukemia; read-out: Cell Growth inhibition Percent
Method: as §1, §2, §3, §4

[12] = system: PC-3; assay: NCI-60 single-dose antiproliferative assay (SRB); format: cell-based; details: Homo sapiens; 10 μM single dose; PC-3, Prostate cancer; read-out: Cell Growth inhibition Percent
Method: as §1, §2, §3, §4

[13] = system: SR; assay: NCI-60 single-dose antiproliferative assay (SRB); format: cell-based; details: Homo sapiens, 10 μM single dose, Leukemia, read-out: Cell Growth inhibition Percent
Method: as §1, §2, §3, §4

[14] = system: T-47D; assay: NCI-60 single-dose antiproliferative assay (SRB); format: cell-based; details: Homo sapiens, T47D, 10 μM single dose, Breast cancer, read-out: Cell Growth inhibition Percent
Method: as §1, §2, §3, §4

[15] = system: KM12; assay: NCI-60 single-dose antiproliferative assay (SRB); format: cell-based; details: Homo sapiens; 10 μM single dose; KM12, Colon cancer; read-out: Cell Growth inhibition Percent
Method: as §1, §2, §3, §4

[16] = system: HOP-92; assay: NCI-60 single-dose antiproliferative assay (SRB); format: cell-based; details: Homo sapiens; 10 μM single dose; HOP-92, Non-small cell lung cancer; read-out: Cell Growth inhibition Percent
Method: as §1, §2, §3, §4

[17] = system: NCI-H226; assay: NCI-60 single-dose antiproliferative assay (SRB); format: cell-based; details: Homo sapiens; 10 μM single dose; NCI-H226, Non-small cell lung cancer; read-out: Cell Growth inhibition Percent
Method: as §1, §2, §3, §4

[18] = system: MCF7; assay: NCI-60 single-dose antiproliferative assay (SRB); format: cell-based; details: Homo sapiens; 10 μM single dose; MCF7, Breast cancer; read-out: Cell Growth inhibition Percent
Method: as §1, §2, §3, §4

[19] = system: HCT-15; assay: NCI-60 single-dose antiproliferative assay (SRB); format: cell-based; details: Homo sapiens; 10 μM single dose; HCT-15, Colon cancer; read-out: Cell Growth inhibition Percent
Method: as §1, §2, §3, §4

[20] = system: CAKI-1; assay: NCI-60 single-dose antiproliferative assay (SRB); format: cell-based; details: Homo sapiens; 10 μM single dose; CAKI-1, Renal cancer; read-out: Cell Growth inhibition Percent
Method: as §1, §2, §3, §4

[21] = system: SNB-75; assay: NCI-60 single-dose antiproliferative assay (SRB); format: cell-based; details: Homo sapiens; 10 μM single dose; SNB-75, CNS cancer; read-out: Cell Growth inhibition Percent
Method: as §1, §2, §3, §4

[22] = system: SN12C; assay: NCI-60 single-dose antiproliferative assay (SRB); format: cell-based; details: Homo sapiens, 10 μM single dose, Renal cancer, read-out: Cell Growth inhibition Percent
Method: as §1, §2, §3, §4

[23] = system: NCI-H522; assay: NCI-60 single-dose antiproliferative assay (SRB); format: cell-based; details: Homo sapiens; 10 μM single dose; NCI-H522, Non-small cell lung cancer; read-out: Cell Growth inhibition Percent
Method: as §1, §2, §3, §4

[24] = system: NCI-H23; assay: NCI-60 single-dose antiproliferative assay (SRB); format: cell-based; details: Homo sapiens; 10 μM single dose; NCI-H23, Non-small cell lung cancer; read-out: Cell Growth inhibition Percent
Method: as §1, §2, §3, §4

hCA I, sequence (P00915 whole entry): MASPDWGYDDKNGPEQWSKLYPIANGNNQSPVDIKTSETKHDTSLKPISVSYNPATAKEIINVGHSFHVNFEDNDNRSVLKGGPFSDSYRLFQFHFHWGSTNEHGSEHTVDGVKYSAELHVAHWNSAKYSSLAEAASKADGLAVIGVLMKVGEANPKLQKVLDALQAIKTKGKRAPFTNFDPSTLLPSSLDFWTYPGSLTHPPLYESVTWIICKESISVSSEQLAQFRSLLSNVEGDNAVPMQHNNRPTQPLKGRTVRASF

| SMILES | Ki [1] | Ki [2] | Ki [3] | melting point | Ki [4] | Selectivity ratio I/XII [3] | Selectivity ratio II/XII [3] | Selectivity ratio I/IX [4] | Selectivity ratio II/IX [4] | other results |
| --- | --- | --- | --- | --- | --- | --- | --- | --- | --- | --- |
| O=C1Nc2ccccc2C1=CNc1ccc(C(=O)Nc2nccs2)cc1 [Compound 9c, 4-{[(2-Oxoindolin-3-ylidene)methyl]amino}-N-(thiazol-2-yl)benzamide] | > 10 µM | > 10 µM | > 10 µM | > 300 °C | > 10 µM |  |  |  |  |  |
| O=C1Nc2ccccc2C1=CNc1ccc(S(=O)(=O)Nc2ncccn2)cc1 [Compound 4b, 4-{[(2-Oxoindolin-3-ylidene)methyl]amino}-N-(pyrimidin-2-yl)benzenesulfonamide] | > 10 µM | > 10 µM | > 10 µM | 238 to 240 °C | > 10 µM |  |  |  |  |  |
| O=C1Nc2ccc(Cl)cc2/C1=N/Nc1nc(-c2ccccc2)cs1 [XIV] |  |  |  |  |  |  |  |  |  | IC50 [5]: 4.66 µM |
| O=C1Nc2ccccc2C1=CNc1ccc(CNc2nccs2)cc1 [Compound 11c, 3-{[(4-((Thiazol-2-ylamino)methyl)phenyl)amino]methylene}indolin-2-one] | > 10 µM | > 10 µM | > 10 µM | 150 to 153 °C | > 10 µM |  |  |  |  |  |
| NS(=O)(=O)OC=C1C(=O)Nc2ccccc21 [Compound 7, (2-Oxoindolin-3-ylidene)methyl sulfamate] | 5.58 µM | 6.24 µM | 0.133 µM | 165 to 170 °C | 0.941 µM | 46.89 | 41.97 | 6.63 | 5.93 |  |
| O=C1Nc2ccccc2C1=CNC1=NS(=O)(=O)c2ccccc21 [Compound 4a, 3-{[(1,1-Dioxidobenzo[d]isothiazol-3-yl)amino]methylene}indolin-2-one] | 8.95 µM | > 10 µM | > 10 µM | 195 to 199 °C | > 10 µM |  |  |  |  |  |
| NS(=O)(=O)c1ccc(NC(=O)Nc2ccc(NC=C3C(=O)Nc4ccccc43)cc2)cc1 [Compound 15a, 4-{3-[4-({[2-Oxoindolin-3-ylidene]methyl}amino)phenyl]ureido}benzenesulfonamide] | 0.762 µM | 0.845 µM | 0.175 µM |  | 0.863 µM | 4.83 | 4.36 | 0.98 | 0.88 |  |
| NS(=O)(=O)c1ccc(NC=CC(=O)c2ccc(NC=C3C(=O)Nc4ccccc43)cc2)cc1 [Compound 13a, 4-{[-3-Oxo-3-(4-{[(-2-oxoindolin-3-ylidene)methyl]amino}phenyl)prop-1-en-1-yl]amino}benzenesulfonamide] | 0.307 µM | 0.483 µM | 0.183 µM | 275 to 278 °C | 0.0913 µM | 2.64 | 1.68 | 5.29 | 3.36 |  |
| O=C(Nc1ccc(NC=C2C(=O)Nc3ccccc32)cc1)Nc1ccc(S(=O)(=O)Nc2ncccn2)cc1 [Compound 15b, 4-{3-[4-({[2-Oxoindolin-3-ylidene]methyl}amino)phenyl]ureido}-N-(pyrimidin-2-yl)benzenesulfonamide] | > 10 µM | > 10 µM | > 10 µM | > 300 °C | > 10 µM |  |  |  |  | inhibition at 10 µM [6]: 18.3%; inhibition at 10 µM [7]: 7.3%; inhibition at 10 µM [8]: 0.02%; inhibition at 10 µM [9]: 1.92%; inhibition at 10 µM [10]: 1.01%; inhibition at 10 µM [11]: 2.05%; inhibition at 10 µM [12]: 5.91%; inhibition at 10 µM [13]: 3.55%; inhibition at 10 µM [14]: 7.81%; inhibition at 10 µM [15]: 49.1%; inhibition at 10 µM [16]: 5.79%; inhibition at 10 µM [17]: 3.3%; inhibition at 10 µM [18]: 15%; inhibition at 10 µM [19]: 2.59%; inhibition at 10 µM [20]: 5.21%; inhibition at 10 µM [21]: 1.02%; inhibition at 10 µM [22]: 1.23%; inhibition at 10 µM [23]: 4.97%; inhibition at 10 µM [24]: 72.8% |
